Legend:
[1] = test system: rabbit peritoneal neutrophils; conditions: cited from earlier work
[2] = test system: rabbit peritoneal neutrophils; experiment: Assay of relative migratory; format: cell-based; conditions: for activity relative to F-Met-Leu as stated in running text: rounded in text from Table II; for times as active as F-Met-Leu, experiment of Fig. 1: single representative experiment (Fig. 1)
[3] = test system: rabbit neutrophils; format: cell-based; conditions: for induction of lysozyme release at highest concentrations: at concentrations of 1 x 10-~ M or higher (so in the source)
[4] = test system: rabbit neutrophils; format: cell-based; conditions: for beta-Glucuronidase release Relative activity ± SE: Table III, relative to F-Met-Leu = 1.0; for induction of beta-glucuronidase release at highest concentrations: at concentrations of 1 x 10-~ M or higher (so in the source)
[5] = test system: neutrophils; conditions: appears competitive; cited from earlier work
[6] = test system: rabbit peritoneal neutrophils; experiment: Test of whether the peptides are chemotactic; format: cell-based; conditions: for nature of induced migration: directed as well as random locomotion

Compound: CC(C)C[C@H](NC=O)C(=O)O [F-leucine]
- chemotactic activity ([1]; not as active as F-methionine): chemotactic

Compound: F-Leu-Trp-Met-Arg
- drop in activity relative to F-Leu-Trp-Met ([2]; chemotactic activity): 40 fold

Compound: F-Met
- induction of lysozyme release at highest concentrations [3]: did not induce release
- beta-Glucuronidase release Relative activity ± SE [4]: > 0.00001
- induction of beta-glucuronidase release at highest concentrations [4]: did not induce release

Compound: F-Met-Glu
- chemotactic activity compared with F-Met-Leu [1]: distinctly less active

Compound: F-Met-His
- chemotactic activity compared with F-Met-Leu [1]: distinctly less active

Compound: F-Met-Leu
- Lysozyme release Relative activity ± SE ([3]; Table III, relative to F-Met-Leu = 1.0): 1
- effect on initial rates of erythrophagocytosis [5]: inhibit
- beta-Glucuronidase release Relative activity ± SE [4]: 1

Compound: F-Met-Leu-Arg
- activity relative to F-Met-Leu as stated in running text ([2]; chemotactic activity): one-third

Compound: F-Met-Leu-Glu
- times as active as F-Met-Leu, experiment of Fig. 1 [2]: 0.71

Compound: F-Met-Leu-Leu
- activity relative to F-Met-Leu as stated in running text ([2]; chemotactic activity): 9 fold

Compound: F-Met-Leu-Phe
- measured mean distance from top of filter to front two PMNs ([6]; Table I A, uniform 1.66 x 10^-10 M above and below, 60 min 37C): 71 µm
- measured mean distance from top of filter to front two PMNs ([6]; Table I A, uniform 1.85 x 10-11 M above and below, 60 min 37C): 40 µm
- measured mean distance from top of filter to front two PMNs ([6]; Table I A, uniform 5 x 10^-10 M above and below, 60 min 37C): 73 µm
- measured mean distance from top of filter to front two PMNs ([6]; Table I A, uniform 5.55 x 10-11 M above and below, 60 min 37C): 60 µm
- nature of induced migration [6]: truly chemotactic
- fold more active than the corresponding unformylated peptide ([2]; chemotactic activity): approximately 10,000 fold
- activity relative to F-Met-Leu as stated in running text ([2]; chemotactic activity): 5,000 fold
- times as active as F-Met-Leu, experiment of Fig. 1 [2]: 7,300

Compound: F-Met-Met-Ala
- activity relative to F-Met-Met (Discussion) ([2]; chemotactic activity): essentially the same
- activity relative to parent dipeptide F-Met-Met (Results) ([2]; chemotactic activity): same activity

Compound: F-Met-Met-Met
- measured mean distance from top of filter to front two PMNs ([6]; Table I B, above 10^-6 M, below 10^-6 M (uniform), 80 min 37C): 56 µm
- calculated distance for purely random migration (bracketed) ([6]; Table I B, above 10^-6 M, below 10^-7 M): 52 µm
- measured mean distance from top of filter to front two PMNs ([6]; Table I B, above 10^-6 M, below 10^-7 M, 80 min 37C): 48 µm
- calculated distance for purely random migration (bracketed) ([6]; Table I B, above 10^-6 M, below 10^-8 M): 52 µm
- measured mean distance from top of filter to front two PMNs ([6]; Table I B, above 10^-6 M, below 10^-8 M, 80 min 37C): 34 µm
- calculated distance for purely random migration (bracketed) ([6]; Table I B, above 10^-6 M, below 10^-9 M): 52 µm
- measured mean distance from top of filter to front two PMNs ([6]; Table I B, above 10^-6 M, below 10^-9 M, 80 min 37C): 38 µm
- calculated distance for purely random migration (bracketed) ([6]; Table I B, above 10^-7 M, below 10^-6 M): 38 µm
- measured mean distance from top of filter to front two PMNs ([6]; Table I B, above 10^-7 M, below 10^-6 M, 80 min 37C): 60 µm
- measured mean distance from top of filter to front two PMNs ([6]; Table I B, above 10^-7 M, below 10^-7 M (uniform), 80 min 37C): 34 µm
- calculated distance for purely random migration (bracketed) ([6]; Table I B, above 10^-7 M, below 10^-8 M): 34 µm
- measured mean distance from top of filter to front two PMNs ([6]; Table I B, above 10^-7 M, below 10^-8 M, 80 min 37C): 36 µm
- calculated distance for purely random migration (bracketed) ([6]; Table I B, above 10^-7 M, below 10^-9 M): 33 µm
- measured mean distance from top of filter to front two PMNs ([6]; Table I B, above 10^-7 M, below 10^-9 M, 80 min 37C): 34 µm
- calculated distance for purely random migration (bracketed) ([6]; Table I B, above 10^-8 M, below 10^-6 M): 35 µm
- measured mean distance from top of filter to front two PMNs ([6]; Table I B, above 10^-8 M, below 10^-6 M, 80 min 37C): 62 µm
- calculated distance for purely random migration (bracketed) ([6]; Table I B, above 10^-8 M, below 10^-7 M): 30 µm
- measured mean distance from top of filter to front two PMNs ([6]; Table I B, above 10^-8 M, below 10^-7 M, 80 min 37C): 47 µm
- measured mean distance from top of filter to front two PMNs ([6]; Table I B, above 10^-8 M, below 10^-8 M (uniform), 80 min 37C): 30 µm
- calculated distance for purely random migration (bracketed) ([6]; Table I B, above 10^-8 M, below 10^-9 M): 30 µm
- measured mean distance from top of filter to front two PMNs ([6]; Table I B, above 10^-8 M, below 10^-9 M, 80 min 37C): 27 µm
- calculated distance for purely random migration (bracketed) ([6]; Table I B, above 10^-9 M, below 10^-6 M): 35 µm
- measured mean distance from top of filter to front two PMNs ([6]; Table I B, above 10^-9 M, below 10^-6 M, 80 min 37C): 69 µm
- calculated distance for purely random migration (bracketed) ([6]; Table I B, above 10^-9 M, below 10^-7 M): 30 µm
- measured mean distance from top of filter to front two PMNs ([6]; Table I B, above 10^-9 M, below 10^-7 M, 80 min 37C): 57 µm
- calculated distance for purely random migration (bracketed) ([6]; Table I B, above 10^-9 M, below 10^-8 M): 27 µm
- measured mean distance from top of filter to front two PMNs ([6]; Table I B, above 10^-9 M, below 10^-8 M, 80 min 37C): 30 µm
- nature of induced migration [6]: truly chemotactic
- activity relative to parent dipeptide F-Met-Met (Results) ([2]; chemotactic activity): 120- to 150 fold
- fold more active than the corresponding unformylated peptide ([2]; chemotactic activity): approximately 20,000 fold

Compound: F-Met-Met-Phe
- activity relative to parent dipeptide F-Met-Met (Results) ([2]; chemotactic activity): 3,500-4,000 fold

Compound: F-Met-Phe-Leu
- fold more active than the corresponding unformylated peptide ([2]; chemotactic activity): around 3,000 fold

Compound: Met-Leu-Glu
- induction of lysozyme release at highest concentrations [3]: did not induce release
- induction of beta-glucuronidase release at highest concentrations [4]: did not induce release
- times less active than F-Met-Leu-Phe ([2]; induced migration and enzyme release): 26 million

Compound: Met-Leu-Leu
- induction of lysozyme release at highest concentrations [3]: did not induce release
- beta-Glucuronidase release Relative activity ± SE [4]: > 0.0001
- induction of beta-glucuronidase release at highest concentrations [4]: did not induce release

Compound: Met-Leu-Phe
- times as active as F-Met-Leu, experiment of Fig. 1 [2]: 0.43

Compound: Met-Met-Ala
- induction of lysozyme release at highest concentrations [3]: did not induce release
- beta-Glucuronidase release Relative activity ± SE [4]: > 0.0001
- induction of beta-glucuronidase release at highest concentrations [4]: did not induce release

Compound: Met-Phe-Leu
- induction of lysozyme release at highest concentrations [3]: did not induce release
- beta-Glucuronidase release Relative activity ± SE [4]: > 0.0001
- induction of beta-glucuronidase release at highest concentrations [4]: did not induce release
